Counter-ions that a name gives are not always drawn.
Columns and labels:
[1] = system: THP-1; assay: THP-1 IC50 assay; format: cell-based; conditions: Homo sapiens; THP-1 cells
[2] = system: IL-1β release upon NLRP3 activation in peripheral blood mononuclear cells (PBMC); assay: PBMC IC50 Determination Assay; format: cell-based; conditions: Homo sapiens; inhibition of IL-1β release; LPS-primed PBMC stimulated with ATP or nigericin
Procedure: The compounds of the present disclosure were tested for their inhibitory activity against IL-1β release upon NLRP3 activation in peripheral blood mononuclear cells (PBMC).
Protocol A. PBMC were isolated from buffy coats by density gradient centrifugation on Histopaque-1077 (Sigma, cat no. 10771). Isolated cells were seeded into the wells of a 96-well plate and incubated for 3 h with lipopolysaccharide (LPS). Following medium exchange, the compounds of the present disclosure were added (a single compound per well) and the cells were incubated for 30 min. Next, the cells were stimulated either with ATP (5 mM) or nigericin (10 μM) for 1 h and the cell culture media from the wells were collected for further analysis.
The release of IL-1β into the media was determined by a quantitative detection of IL-1β in the media using an IL-1β enzyme-linked immunosorbent assay (ELISA) Ready-SET-Go!, eBioscience cat. No. 88-7261-88. Briefly, in a first step, high affinity binding plates (Corning, Costar 9018 or NUNC Maxisorp Cat No. 44-2404) were coated overnight at 4° C. with specific capture antibody included in the kit (anti-human IL-1β ref. 14-7018-68). Subsequently, plates were blocked with blocking buffer for 1 h at room temperature (rt) and after washing with a buffer (PBS with 0.05% Tween-20) incubated with protein standard and culture media. After 2 h of incubation at rt, plates were washed and incubated with biotinylated detection antibody included in the kit (anti-human IL-1β Biotin ref. 33-7110-68) for 1 h at rt. Plates were washed and incubated with HRP-streptavidin for 30 min at rt and washed again. The signal was developed after addition of 3,3′,5,5′-tetramethylbenzidine-peroxidase (TMB) until colour appeared and the reaction was stopped by 2 M H2SO4. A microplate spectrophotometer (BioTek) was used to detect signals with 450 nm. The detection range of IL-1β ELISA was […].
Protocol B. PBMC were isolated from buffy coats by density gradient centrifugation on Histopaque-1077 (Sigma, cat no. 10771). Isolated cells were seeded into the wells (280,000 cells/well) of a 96-well plate and incubated for 3 h with lipopolysaccharide (LPS, 1 μg/mL diluted 1000× from a 1 mg/mL stock solution). The compounds of the present disclosure were added (a single compound per well) and the cells were incubated for 30 min. Next, the cells were stimulated with ATP (5 mM final concentration diluted 20× from a 100 mM stock solution) for 1 h and the cell culture media from the wells were collected for further analysis.
The release of IL-1β into the media was determined by quantitative detection of IL-1β in the media using HTRF®, CisBio cat. No. 62HIL1BPEH. Briefly, cell culture supernatant were dispensed directly into the assay plate containing antibodies labelled with the HTRF® donor and acceptor. A microplate spectrophotometer (BMG) was used to detect signals at 655 nm and 620 nm. The detection range of IL-1β HTRF® was 39-6500 μg/mL.

| SMILES | IC50 [1] [nM] | IC50 [2] [nM] |
| --- | --- | --- |
| Cc1cc(C(F)(F)F)cc(O)c1-c1ccc(CNC2CCOCC2)nn1 [Compound 1, 3-Methyl-2-(6-(((tetrahydro-2H-pyran-4-yl)amino)methyl)pyridazin-3-yl)-5-(trifluoromethyl)phenol] | 500 to 1000 | 500 to 1000 |
| Cc1cc(C(F)(F)F)cc(O)c1-c1ccc(CNC2CC3(COC3)C2)nn1 [Compound 2, 2-(6-(((2-Oxaspiro[3.3]heptan-6-yl)amino)methyl)pyridazin-3-yl)-3-methyl-5-(trifluoromethyl)phenol] | 500 to 1000 | 500 to 1000 |
| Cc1cc(C(F)(F)F)cc(O)c1-c1ccc(CNC2CC3(C2)CS(=O)(=O)C3)nn1 [Compound 3, 6-(((6-(2-Hydroxy-6-methyl-4-(trifluoromethyl)phenyl)pyridazin-3-yl)methyl)amino)-2-thiaspiro[3.3]heptane 2,2-dioxide] | 500 to 1000 | 500 to 1000 |
| Cc1cc(C(F)(F)F)cc(O)c1-c1ccc(CNC2CC3CCOC32)nn1 (stereo not drawn) [Compound 4, 2-(6-(((2-Oxabicyclo[3.2.0]heptan-7-yl)amino)methyl)pyridazin-3-yl)-3-methyl-5-(trifluoromethyl)phenol] | 1000 to 3000 | 1000 to 3000 |
| Cc1cc(C(F)(F)F)cc(O)c1-c1ccc(CNC2(C)CCOCC2)nn1 [Compound 5, 3-Methyl-2-(6-(((4-methyltetrahydro-2H-pyran-4-yl)amino)methyl)pyridazin-3-yl)-5-(trifluoromethyl)phenol] | 500 to 1000 | 500 to 1000 |
| Cc1cc(C(F)(F)F)cc(O)c1-c1ccc(CNC2(C)CCOC2)nn1 (stereo not drawn) [Compound 6, 3-Methyl-2-(6-(((3-methyltetrahydrofuran-3-yl)amino)methyl)pyridazin-3-yl)-5-(trifluoromethyl)phenol hydrochloride] | 500 to 1000 | 500 to 1000 |
| Cc1cc(C(F)(F)F)cc(O)c1-c1ccc(CNC(=O)C2CCOCC2)nn1 [Compound 7, N-((6-(2-Hydroxy-6-methyl-4-(trifluoromethyl)phenyl)pyridazin-3-yl)methyl)tetrahydro-2H-pyran-4-carboxamide] | 3000 to 10000 | 3000 to 10000 |
| COCC(=O)NCc1ccc(-c2c(C)cc(C(F)(F)F)cc2O)nn1 [Compound 8, N-((6-(2-Hydroxy-6-methyl-4-(trifluoromethyl)phenyl)pyridazin-3-yl)methyl)-2-methoxyacetamide] | 3000 to 10000 | 1000 to 3000 |
| Cc1c(C(F)(F)F)ccc(-c2ccc(CNC3CCOCC3)nn2)c1O [Compound 9, 2-Methyl-6-(6-(((tetrahydro-2H-pyran-4-yl)amino)methyl)pyridazin-3-yl)-3-(trifluoromethyl)phenol] | ≥ 10000 | ≥ 10000 |
| Cc1cc(CNC2CCOCC2)nnc1-c1c(C)cc(C(F)(F)F)cc1O [Compound 10, 3-Methyl-2-(4-methyl-6-(((tetrahydro-2H-pyran-4-yl)amino)methyl)pyridazin-3-yl)-5-(trifluoromethyl)phenol] | 1000 to 3000 | 1000 to 3000 |
| Cc1cc(CNC2CCOCC2)nnc1-c1ccc(C(F)(F)F)cc1O [Compound 11, 2-(4-Methyl-6-(((tetrahydro-2H-pyran-4-yl)amino)methyl)pyridazin-3-yl)-5-(trifluoromethyl)phenol] | 1000 to 3000 | 1000 to 3000 |
| Cc1cc(Cl)cc(O)c1-c1ccc(CNC2CCOCC2)nn1 [Compound 12, 5-Chloro-3-methyl-2-(6-(((tetrahydro-2H-pyran-4-yl)amino)methyl)pyridazin-3-yl)phenol] | < 500 | < 500 |
| Oc1cc(C(F)(F)F)ccc1-c1ccc(CNC2CCOCC2)nn1 [Compound 13, 2-(6-(((Tetrahydro-2H-pyran-4-yl)amino)methyl)pyridazin-3-yl)-5-(trifluoromethyl)phenol] | 3000 to 10000 | 3000 to 10000 |
| Oc1cc(C(F)(F)F)cc(Cl)c1-c1ccc(CNC2CCOCC2)nn1 [Compound 14, 3-Chloro-2-(6-(((tetrahydro-2H-pyran-4-yl)amino)methyl)pyridazin-3-yl)-5-(trifluoromethyl)phenol] | 1000 to 3000 | 1000 to 3000 |
| Cc1cc(-c2ccc(CNC3CCOCC3)nn2)c(O)cc1C(F)(F)F [Compound 15, 4-Methyl-2-(6-(((tetrahydro-2H-pyran-4-yl)amino)methyl)pyridazin-3-yl)-5-(trifluoromethyl)phenol] | ≥ 10000 | ≥ 10000 |
| Oc1cc(Cl)ccc1-c1ccc(CNC2CCOCC2)nn1 [Compound 16, 5-Chloro-2-(6-(((tetrahydro-2H-pyran-4-yl)amino)methyl)pyridazin-3-yl)phenol] | 1000 to 3000 | ≥ 10000 |
| Cc1cc(C(F)(F)F)cc(O)c1-c1ccc(COC2CCOCC2)nn1 [Compound 17, 3-methyl-2-(6-(((tetrahydro-2H-pyran-4-yl)oxy)methyl)pyridazin-3-yl)-5-(trifluoromethyl)phenol] | 1000 to 3000 | 3000 to 10000 |

| SMILES | IC50 [1] [nM] | IC50 [2] [nM] |
| --- | --- | --- |
| Cc1cc(C(F)(F)F)cc(O)c1-c1ccc(COC2CCCNC2)nn1 (stereo not drawn) [Compound 18, 3-Methyl-2-(6-((piperidin-3-yloxy)methyl)pyridazin-3-yl)-5-(trifluoromethyl)phenol] | 1000 to 3000 | 500 to 1000 |
| Cc1cc(C(F)(F)F)cc(O)c1-c1ccc(COC2CCNCC2)nn1 [Compound 19, 3-Methyl-2-(6-((piperidin-4-yloxy)methyl)pyridazin-3-yl)-5-(trifluoromethyl)phenol] | 1000 to 3000 | 1000 to 3000 |
| Cc1cc(C(F)(F)F)cc(O)c1-c1ccc(CN)nn1 [Compound 20, 2-[6-(aminomethyl)pyridazin-3-yl]-3-methyl-5-(trifluoromethyl)phenol] | 3000 to 10000 | 1000 to 3000 |
| Cc1cc(C(F)(F)F)cc(O)c1-c1ccc(CNC2COC2)nn1 [Compound 21] | 500 to 1000 | 500 to 1000 |
| Cc1cc(C(F)(F)F)cc(O)c1-c1ccc(CNC2CCCN(C)C2)nn1 (stereo not drawn) [Compound 22] | 1000 to 3000 | 1000 to 3000 |
| Cc1cc(C(F)(F)F)cc(O)c1-c1ccc(CN2C(=N)N(C)CC2=O)nn1 [Compound 23] | 3000 to 10000 | 3000 to 10000 |
| CC(=O)N1CCC(NCc2ccc(-c3c(C)cc(C(F)(F)F)cc3O)nn2)C1 (stereo not drawn) [Compound 24] | 500 to 1000 | < 500 |
| Cc1cc(C(F)(F)F)cc(O)c1-c1ccc(Cn2ccc(=N)cc2)nn1 [Compound 25] | 3000 to 10000 | 3000 to 10000 |
| Cc1cc(C(F)(F)F)cc(O)c1-c1ccc(CNc2cncnc2)nn1 [Compound 26] | 1000 to 3000 | 500 to 1000 |
| Cc1cc(C(F)(F)F)cc(O)c1-c1ccc(CNc2ccnn2C)nn1 [Compound 27] | 1000 to 3000 | 500 to 1000 |
| Cc1cc(C(F)(F)F)cc(O)c1-c1ccc(CNc2cscn2)nn1 [Compound 28] | 500 to 1000 | 500 to 1000 |
| Cc1cc(Br)cc(O)c1-c1ccc(CNC2CCOCC2)nn1 [Compound 29, 5-Bromo-3-methyl-2-(6-(((tetrahydro-2H-pyran-4-yl)amino)methyl)pyridazin-3-yl)phenol] | < 500 | < 500 |
| Cc1cc(OC(F)(F)F)cc(O)c1-c1ccc(CNC2CCOCC2)nn1 [Compound 30, 3-Methyl-2-(6-(((tetrahydro-2H-pyran-4-yl)amino)methyl)pyridazin-3-yl)-5-(trifluoromethoxy)phenol] | 3000 to 10000 | 3000 to 10000 |
| Cc1cc(NCc2ccc(-c3c(C)cc(C(F)(F)F)cc3O)nn2)no1 [Compound 31, 3-Methyl-2-(6-(((5-methylisoxazol-3-yl)amino)methyl)pyridazin-3-yl)-5-(trifluoromethyl)phenol] | 1000 to 3000 | < 500 |
| Cc1cc(C(F)(F)F)cc(O)c1-c1ccc(CN[C@@H]2CCOC2)nn1 [Compound 32, (R)-3-Methyl-2-(6-(((tetrahydrofuran-3-yl)amino)methyl)pyridazin-3-yl)-5-(trifluoromethyl)phenol] | 500 to 1000 | < 500 |
| Cc1cc(C(F)(F)F)cc(O)c1-c1ccc(CNC2CC(F)(F)C2)nn1 [Compound 143] |  | < 500 |
| Cc1cnc(NCc2ccc(-c3c(C)cc(C(F)(F)F)cc3O)nn2)o1 [Compound 148] | 1000 to 3000 |  |

Source: patent US20250115558A1, “PYRIDAZINE DERIVATIVES AND RELATED USES” (NodThera Limited, priority 2023, published 2025)
